Experimental data published in paper PMC9880438, “Pharmacokinetics of active compounds of a Terminalia chebula Retz. Ethanolic extract after oral administration rats using UPLC-MS/MS” (Frontiers in Pharmacology, 2023).

Experiments:
[1] = Pharmacokinetic study in rats after oral administration of TC extracts (UPLC-MS/MS of plasma); conditions: male, Sprague-Dawley, rat, plasma, po, 10 g/kg
Protocol: UPLC-MS/MS system was used for analysis and monitoring, which consisted primarily of an Agilent 1290 UPLC system (Agilent Technologies, Germany) and an Agilent 6,470 series triple quad (TQ) mass spectrometer (MS) (Agilent Technologies, Singapore) equipped with an electrospray ionization source.
Separation was carried out on an ACQUITY UPLC® HSS T3 column (2.1 × 100 mm, 1.8 μm), and temperature in the column was kept at 20°C. In the mobile phase, 0.1% formic acid in water and acetonitrile were used as solvents A and B, respectively. Gradient elution was performed as follows: 1%–5% B at 0–3 min; 5%–30% B at 3–4 min; 30%–40% B at 4–8 min; 40%–100% B at 8–9 min; 100%–100% B at 9–12 min. The flow rate was set at 0.3 ml/min and the injection volume was 10 μL.
Multiple reaction monitoring (MRM) was used for quantitative analysis in negative (−) ionization mode. The mass spectrometric parameters were set as follows: drying gas (N2) temperature was 300°C; gas (N2) flow rate was 7 L/min; atomizer pressure was 35 psi; sheath gas flow was 11 L/min and capillary voltage was 3800 V. The specific mass spectrometric parameters of the precursor ion, product ion, fragmentor, collision energy, and ion modes of the nine compounds and IS are shown in Table 1.
The plasma sample (100 μl) was sequentially spiked with 20 μl IS solutions (caffeic acid, 1,000 ng/ml); 20 μL methanol, and 10 μl formic acid, then vortex-mixed for 1 min. The mixture was precipitated protein with 1,000 μl methanol by vortex mixing for 3 min. The supernatant was collected into a 1.5 ml clean centrifuge tube after centrifugation at for 10 min 14,000 rpm, and evaporated under a nitrogen stream until dry. After that, the residue was redissolved in 100 μl methanol, vortex-mixed for 3 min, then centrifuged for 10 min at 14,000 rpm. 10 μl analyte was injected into the UPLC-MS/MS system.
In this study, six of male rats were used, given free access to water, and fasted for 12 h before the experimental period. The TC extracts were dissolved in 0.5% CMC-Na aqueous solution as a suspension at a concentration of 1 g/ml. A dose of 10 g/kg of the suspension was administered to the rats orally, the blood samples of approximately 300 μL were drawn from the fundus venous plexus of rats pre- and post-oral administration at 0.00, 0.08, 0.17, 0.25, 0.50, 0.75, 1, 2, 4, 6, 8, 10, 12, 24, 36, 48, 60, 72, 84, 96, 120, 144 and 168 h, respectively. For analysis, the plasma supernatants collected from the centrifuged plasma were frozen at −80°C after centrifugation for 10 min at 6,000 rpm.
Data were expressed as mean ± standard deviation (mean ± SD). MassHunter Workstation software (version B.09.00) was quantitatively used to calculate the plasma concentrations of nine analytes. To evaluate the specific pharmacokinetic parameters, DAS Software (DAS 3.0, Medical College of Wannan, China) was used to process the pharmacokinetic results.

[2] = test system: HepG2 cells; set-up: method as in Achari et al., 2011; conditions: 50 μM; ref Achari et al., 2011; cited from earlier work
[3] = Stability of QC samples of the analytes in rat plasma under storage conditions; type: physicochemical; conditions: n = 6
Protocol: Preparation of quality control (QC) samples with three concentrations (low, medium, and high) of 16, 160, and 3,200 ng/ml for ellagic acid; 1.6, 16, 320 ng/ml for protocatechuic acid, ethyl gallate and 1,2,3,4,6-O-pentagalloylglucose; 40, 400 and 8,000 ng/ml for chebulic acid, gallic acid, corilagin and chebulinic acid and 160, 1,600, 32000 ng/ml for chebulagic acid. Both QC samples and stock solutions were stored in a refrigerator at 4°C.
Under variable treatment conditions: stored for 12 h at auto-sampler, for 4 hours at room temperature, under three freeze-thaw cycles, and kept at −80°C for 7 days, quality control samples were analyzed to assess the stability of the nine analytes in plasma.

Q: What does the source list for `O=C(O)C[C@@H]1C(=O)O[C@H]2[C@@H]3OC(=O)c4cc(O)c(O)c(O)c4-c4c(cc(O)c(O)c4O)C(=O)OC[C@H]2O[C@@H](OC(=O)c2cc(O)c(O)c(O)c2)[C@@H]3OC(=O)c2cc(O)c(O)c3c2[C@H]1[C@H](O)C(=O)O3` [Chebulagic acid, chebulagic acid]?
A: AUC [1]: 231 ± 64.6 µg·h/mL; AUC(0-inf) [1]: 234 ± 65.7 µg·h/mL; Cmax [1]: 4980 ng/mL; MRT [1]: 49.8 ± 4.87 h; MRT inf [1]: 51.8 ± 5.3 h; Tmax [1]: 5.67 ± 3.67 h; half-life [1]: 20 ± 2.51 h; Sensitivity of HepG2 cells towards Dox induced cytotoxicity [2]: increased the sensitivity; Measured concentration after storage ([3]; spiked 160 ng/mL, autosampler for 12 h): 145.5 ± 16.4 ng/mL; Measured concentration after storage ([3]; spiked 160 ng/mL, room temperature for 4 h): 160.8 ± 6.2 ng/mL; Measured concentration after storage ([3]; spiked 160 ng/mL, three freeze-thaw cycles): 167.9 ± 7.8 ng/mL; Measured concentration after storage ([3]; spiked 160 ng/mL, −80°C for 7 days): 168.0 ± 4.2 ng/mL; Measured concentration after storage ([3]; spiked 1,600 ng/mL, autosampler for 12 h): 1,448.9 ± 70.5 ng/mL; Measured concentration after storage ([3]; spiked 1,600 ng/mL, room temperature for 4 h): 1,465.3 ± 158.2 ng/mL; Measured concentration after storage ([3]; spiked 1,600 ng/mL, three freeze-thaw cycles): 1,391.9 ± 61.5 ng/mL; Measured concentration after storage ([3]; spiked 1,600 ng/mL, −80°C for 7 days): 1,512.8 ± 65.1 ng/mL; Measured concentration after storage ([3]; spiked 32000 ng/mL, autosampler for 12 h): 34277.3 ± 2,721.2 ng/mL; Measured concentration after storage ([3]; spiked 32000 ng/mL, room temperature for 4 h): 31970.0 ± 1,256.3 ng/mL; Measured concentration after storage ([3]; spiked 32000 ng/mL, three freeze-thaw cycles): 33770.8 ± 3,365.5 ng/mL; Measured concentration after storage ([3]; spiked 32000 ng/mL, −80°C for 7 days): 31615.2 ± 953.8 ng/mL
